Data from patent US10231452B2, “Thiopicolinamide compounds with fungicidal activity” (Dow AgroSciences LLC, priority 2016, dated 2019).
Where two headings read alike, the source gives them in different places.

How the values were obtained:
Zymoseptoria tritici = assay: Fungicidal activity: leaf blotch of wheat (SEPTTR), disease control on wheat seedlings; format: in vivo; conditions: wheat (Yuma); for pest or weed control at 100 ppm: high volume application; for pest or weed control at 121.5 g/ha: low volume application, 121.5 g/H
Experimental: Evaluation of Fungicidal Activity: Leaf Blotch of Wheat (Zymoseptoria Tritici; Bayer Code […]) Technical grades of materials were dissolved in acetone, which were then mixed with nine volumes of water (H2O) containing 110 ppm Triton X-100. The fungicide solutions were applied onto wheat seedlings using an automated booth sprayer to run-off. All sprayed plants were allowed to air dry prior to further handling. All fungicides were evaluated using the aforementioned method for their activity vs. all target diseases, unless stated otherwise. Wheat leaf blotch and brown rust activity were also evaluated using track spray applications, in which case the fungicides were formulated as EC formulations, containing 0.1% Trycol 5941 in the spray solutions. Wheat plants (variety Yuma) were grown from seed in a greenhouse in 50% mineral soil/50% soil-less Metro mix until the first leaf was fully emerged, with 7-10 seedlings per pot. These plants were inoculated with an aqueous spore suspension of Zymoseptoria tritici either prior to or after fungicide treatments. After inoculation the plants were kept in 100% relative humidity (one day in a dark dew chamber followed by two to three days in a lighted dew chamber at 20° C.) to permit spores to germinate and infect the leaf. The plants were then transferred to a greenhouse set at 20° C. for disease to develop. When disease symptoms were fully expressed on the 1st leaves of untreated plants, infection levels were assessed on a scale of 0 to 100 percent disease severity. Percent disease control was calculated using the ratio of disease severity on treated plants relative to untreated plants.

Puccinia triticina = assay: Fungicidal activity: wheat brown rust (PUCCRT), disease control on wheat seedlings; format: in vivo; conditions: wheat (Yuma); for pest or weed control at 100 ppm: high volume application; for pest or weed control at 121.5 g/ha: low volume application, 121.5 g/H
Experimental: Technical grades of materials were dissolved in acetone, which were then mixed with nine volumes of water (H2O) containing 110 ppm Triton X-100. The fungicide solutions were applied onto wheat seedlings using an automated booth sprayer to run-off. All sprayed plants were allowed to air dry prior to further handling. All fungicides were evaluated using the aforementioned method for their activity vs. all target diseases, unless stated otherwise. Wheat leaf blotch and brown rust activity were also evaluated using track spray applications, in which case the fungicides were formulated as EC formulations, containing 0.1% Trycol 5941 in the spray solutions.
Evaluation of Fungicidal Activity: Wheat Brown Rust (Puccinia Triticina; Synonym: Puccinia recondita f. Sp. Tritici; Bayer Code PUCCRT)
Wheat plants (variety Yuma) were grown from seed in a greenhouse in 50% mineral soil/50% soil-less Metro mix until the first leaf was fully emerged, with 7-10 seedlings per pot. These plants were inoculated with an aqueous spore suspension of Puccinia triticina either prior to or after fungicide treatments. After inoculation the plants were kept in a dark dew room at 22° C. with 100% relative humidity overnight to permit spores to germinate and infect the leaf. The plants were then transferred to a greenhouse set at 24° C. for disease to develop. Fungicide formulation, application and disease assessment followed the procedures as described in the Example A. The results of the evaluation are shown below in Table 4.

Phakopsora pachyrhizi = assay: Fungicidal activity: Asian soybean rust (PHAKPA), disease control on soybean seedlings; format: in vivo; conditions: soybean (Williams 82)
Experimental: Evaluation of Fungicidal Activity: Asian Soybean Rust (Phakopsora pachyrhizi; Bayer Code PHAKPA)
Technical grades of materials were dissolved in acetone, which were then mixed with nine volumes of H2O containing 0.011% Tween 20. The fungicide solutions were applied onto soybean seedlings using an automated booth sprayer to run-off. All sprayed plants were allowed to air dry prior to further handling.
Soybean plants (variety Williams 82) were grown in soil-less Metro mix, with one plant per pot. Two weeks old seedlings were used for testing. Plants were inoculated either 3 days prior to or 1 day after fungicide treatments. Plants were incubated for 24 h in a dark dew room at 22° C. and 100% relative humidity then transferred to a growth room at 23° C. for disease to develop. Disease severity was assessed on the sprayed leaves.

[1] = 24 h, 1 day protectant, read-out: SEPTTR 1DP disease control, HV activity at 100 ppm
[2] = 72 h, 3 day curative, read-out: SEPTTR 3DC disease control, HV activity at 100 ppm
[3] = 24 h, 1 day protectant, read-out: PUCCRT 1DP disease control, HV activity at 100 ppm
[4] = 72 h, 3 day curative, read-out: PUCCRT 3DC disease control, HV activity at 100 ppm
[5] = 24 h, 1 day protectant, read-out: SEPTTR 1DP disease control, LV activity at 121.5 g/H
[6] = 72 h, 3 day curative, read-out: SEPTTR 3DC disease control, LV activity at 121.5 g/H
[7] = 24 h, 1 day protectant, read-out: PUCCRT 1DP disease control, LV activity at 121.5 g/H
[8] = 72 h, 3 day curative, read-out: PUCCRT 3DC disease control, LV activity at 121.5 g/H

melting point [°C]	Structure (SMILES)	pest or weed control at 100 ppm (Zymoseptoria tritici; [1]) [%]	pest or weed control at 100 ppm (Zymoseptoria tritici; [2]) [%]	pest or weed control at 100 ppm (Puccinia triticina; [3]) [%]	pest or weed control at 100 ppm (Puccinia triticina; [4]) [%]	pest or weed control at 121.5 g/ha (Zymoseptoria tritici; [5]) [%]	pest or weed control at 121.5 g/ha (Zymoseptoria tritici; [6]) [%]	pest or weed control at 121.5 g/ha (Puccinia triticina; [7]) [%]	pest or weed control at 121.5 g/ha (Puccinia triticina; [8]) [%]	pest or weed control at 25 ppm (Phakopsora pachyrhizi; 24 h, 1 day protectant, read-out: PHAKPA 1DP disease control at 25 ppm) [%]	pest or weed control at 25 ppm (Phakopsora pachyrhizi; 72 h, 3 day curative, read-out: PHAKPA 3DC disease control at 25 ppm) [%]
60 to 72	COc1cc(C)ccc1C(c1ccc(F)cc1OC)[C@H](C)OC(=O)[C@H](C)NC(=S)c1nccc(OC)c1O (some centres unmarked) [Compound 29]	> 80	> 80	> 80	> 80						
49 to 57	COc1ccnc(C(=S)N[C@@H](C)C(=O)O[C@@H](C)[C@H](Oc2ccc(C)cc2)C2CCCC2)c1O [Compound 38]	> 80	≤ 80	> 80	> 80						
	CCCCC[C@@H](OC(=O)[C@H](C)NC(=S)c1nccc(OC)c1OC(C)=O)[C@H](C)Oc1ccccc1 [Compound 41]					> 80	> 80	> 80	> 80		
	COc1cc(C)ccc1C(c1ccc(F)cc1OC)[C@H](C)OC(=O)[C@H](C)NC(=S)c1nccc(OC)c1OC(C)=O (some centres unmarked) [Compound 65]					> 80	> 80	> 80	> 80	> 80	≤ 80
